Assay results as given in patent publication US8765692B2, “Modified-galactosyl ceramides for staining and stimulating natural killer T cells” (The Scripps Research Institute, priority 2006, dated 2014).

How the values were obtained:
[1] = Solubility in DMSO; type: physicochemical; settings: for solubility: 20 °C, organic solvent or mixture; for solubility (in words): relative to KRN7000 or fully saturated compounds
Protocol: As with most glycolipids, solubility issues are central to handling the compounds. Compounds are usually solubilized in DMSO, and then diluted to working concentrations in aqueous solutions. […] In suitable embodiments, the compounds of the invention are at least about 10 mg/mL in DMSO under ambient conditions (approximately 20° C.). In more suitable embodiments, the compounds of the invention are at least about 20 mg/mL in DMSO at ambient temperature. In further suitable embodiments, the compounds of the invention are at least 80%, at least two-fold, or at least 4-fold relative to the solubility of KRN7000 in DMSO at ambient temperature.

[2] = tested on: Vα14i NKT cells; test: Staining of Vα14i NKT cells with glycolipid-loaded mouse CD1d tetramers (flow cytometry); type: cell-based; settings: summary statement, compared with KRN7000
Protocol: An typical means to isolate and quantify CD1 responsive NKT cells is through flow cytometry using fluorophore tagged CD1d tetramers loaded with sphingoglycolipids. To test for the ability of PBS-57 to facilitate CD1d tetramer staining, glycolipid-loaded CD1d tetramers were formed. Biotinylated mouse sCD1d molecules (in PBS) were mixed with PBS-57 or KRN7000 at a molar ratio of 1:3 (protein:lipid) and incubated overnight at room temperature. The following day, 80 μg of streptavidin-PE (Pharmagen) was added to 200 μg of the CD1-glycolipid mix and incubated at room temperature for 4 hours. Tetramers were stored at 4° C. until use.
Single cell suspensions of thymocytes and splenocytes were isolated from C57BL/6J mice (Jackson Laboratories, Bar Harbor, Me.) as known in the art. The TCR repertoire of the NKT cells was limited with an invariable Vα subunit (Vα14 in mice) and varied Vβ subunits. 10^6 cells were incubated with 200 μL staining media (2% BSA, 1% NaN3, 10 mM EDTA in PBS) with 2.4G2 (1:100; ATCC, Manassas, Va.) and Neutravidin (5 μg/200 μl; Molecular Probes, Eugene, Oreg.) for 20 minutes on ice. […] Cells were washed twice in staining media, fixed with 1% paraformaldehyde in PBS and analyzed by flow cytometry.

[3] = tested on: NKT cell hybridomas; test: Binding of PBS-57 loaded CD1d tetramers to NKT cell hybridomas expressing different Vβ; type: cell-based; settings: hybridomas with different Vβ TCR, 37° C. 4 hours, FIG. 4
Protocol: The TCR expressed on NKT cells are limited to a invariant Vα subunit, and a variable Vβ subunit that respond to glycolipid presentation by CD1d. To determine if PBS-57 loaded tetramers were Vβ subunit specific in their ability to bind, NKT cell hybridomas expressing different Vβ were tested for their ability to bind PBS-57 loaded CD1d tetramers.
For staining of NKT cell hybridomas, soluble CD1d (sCD1d) tetramers were loaded with PBS-57 or KRN7000 by the following procedure. Stock reagents of the following were prepared: sCD1d (1 mg/ml in phosphate buffer saline (PBS)); PBS-57 (1 mg/ml in DMSO); Tween 20 (0.5% in PBS); and streptavidin-APC (80 μg/mL in PBS). 10 μL sCD1d stock, 1 μL PBS-57 stock, and 10 μL Tween 20 stock were mixed, and 79 μL PBS was added to bring the volume up to 100 μL. […] To separate unbound glycolipid, the mixture was applied to a Microcon YM30 filter (Millipore) that has been previously wetted with PBS (400 μL). The loaded membrane was centrifuged until only ˜10 μL of solution remained. The volume was then increased to 100 μL by addition of PBS. The solution was agitated to aid in freeing the protein from the filter. The Microcon unit was inverted into a fresh Eppendorf tube and the contents were centrifuged into the tube. A 10 μL aliquot of the solution was removed and the streptavidin-APC solution (5 μL) was added. […]

[4] = tested on: NKT cells; test: CD1d tetramer staining of NKT cells in human blood samples; type: cell-based; settings: PBS-57 loaded mouse and human CD1d tetramers
Description: (§1) To test whether PBS-57 could facilitate NKT cell binding in blood samples of both human and non-human primates, mouse and human CD1d tetramers were loaded with PBS-57 as described in Example 2. A majority of the human blood samples contained sufficient NKT cells (>0.08% of CD3-positive cells) to observe staining (14 out of 17 samples), while some samples may have contained too few NKT cells to allow detection of staining (Lee et al., 2002).

[5] = tested on: NKT cells; test: CD1d tetramer staining of NKT cells in chimpanzee blood samples; type: cell-based; settings: PBS-57 loaded CD1d tetramers
Description: as §1

[6] = tested on: NKT cells; test: CD1d tetramer staining of NKT cells in rhesus macaque blood samples; type: cell-based; settings: rhesus macaques, 12 samples
Description: as §1

[7] = tested on: NKT cells; test: CD1d tetramer staining of NKT cells in pigtail macaque blood samples; type: cell-based; settings: pigtail macaques
Description: as §1

[8] = tested on: NKT cells; test: CD1d tetramer staining of NKT cells in sooty mangabey blood samples; type: cell-based; settings: sooty mangabeys
Description: as §1

[9] = tested on: NKT cells (B6 mouse splenocytes); test: Cytokine release in vitro from mouse splenocytes (IL-4 and IFNγ ELISA); type: cell-based; settings: for concentration at which cytokine responses plateau: 5×10^5 B6 splenocytes, IL-4 and IFNγ ELISA, FIG. 6
Protocol: To determine if PBS-57 stimulated cytokine release by NKT cells in vitro, 5×10^5 mouse splenocytes isolated from B6 mice were incubated in separate wells with 10^5, 10^4, 10^3, 100, 10 and 1 pg/mL of PBS-57 or KRN7000 in RPMI 1640 media supplemented with 10% FBS, 50 μM 2-mercaptoethanol, 2 mM glutamine and antibiotics. After 48 hours, IL-4 and IFNγ levels were measured by ELISA (BD Pharmingen).

[10] = tested on: NKT cells; test: Cytokine release in vivo: serum INF-γ after intravenous injection; design: species or system mouse
Protocol: To examine if PBS-57 elicited an immune response in vivo, the ability of PBS-57 and KRN7000 to elicit an increase in cytokine levels in a mouse was assayed. 1 mg/ml stock solutions of PBS-57 and KRN7000 in DMSO were prepared. The PBS-57 and KRN7000 solutions were diluted with PBS to 1, 100, 10^4, and 10^6 pg/mL. 100 μL of each solution was injected intravenously into 6 week-old B6 mice. Serum samples were isolated from the mice at 24 hours, and the concentration of INF-γ was assayed by ELISA (BD Pharmingen).

| SMILES | solubility [1] [mg/mL] | solubility ([1]; molar value printed in parentheses) [mM] | solubility (in words) [1] | staining of mouse and human NKT cells (summary) [2] | effect of Vβ subunit variation on binding of loaded CD1d tetramers [3] | blood samples with observable NKT cell staining [4] | blood samples with significant NKT cell staining [5] | share of blood samples with significant NKT cell staining [6] | NKT cell staining in blood samples [7] | NKT cell staining in blood samples [8] | concentration at which cytokine responses plateau ([9]; 48 hours) | Th1 and Th2 cytokine secretion ([9]; B6 splenocytes, 48 hours) | NKT cell stimulation in vitro relative to KRN7000 ([9]; summary statement, in vitro) | serum INF-γ concentration relative to KRN7000 ([10]; B6 mice, intravenous, 100 μL of 1 to 10^6 pg/mL, serum at 24 hours, FIG. 7) | NKT cell stimulation in vivo relative to KRN7000 ([10]; summary statement, in vivo) |
| --- | --- | --- | --- | --- | --- | --- | --- | --- | --- | --- | --- | --- | --- | --- | --- |
| CCCCCCCCC=CCCCCCCCCCCCCCC(=O)N[C@@H](OC1OC(CNC(C)=O)C(O)C(O)C1O)C(O)[C@H](O)CCCCCCCCCCCCCC (stereo partly drawn) [PBS-57] | 20 | 22.4 | relatively high solubility | as well as KRN7000 | did not affect the binding | 14 out of 17 | 6 out of 10 | one quarter | No staining | No staining | approximately 100 pg/mL | able to induce both Th1 and Th2 cytokine secretion | stimulates NKT cells more effectively than KRN7000 | equal to or greater than KRN7000 | stimulates NKT cells more effectively than KRN7000 |
| CCCCCCCCCCCCCCCCCCCCCCCCCC(=O)N[C@@H](CO[C@H]1O[C@H](CO)[C@H](O)[C@H](O)[C@H]1O)[C@H](O)[C@H](O)CCCCCCCCCCCCCC [KRN7000, reference compound] | < 5 |  | relatively poor solubility in either aqueous or organic solvents |  |  |  |  |  |  |  | ~1000 pg/mL |  |  |  |  |
